Reference: US4849441A, “Isoindolin-1-one derivative and antiarrhythmic agent” (Kyowa Hakko Kogyo Co., Ltd., priority 1986, dated 1989)

Tests used:
[1] = test system: chloroform-induced arrhythmia in mice; test: Mice chloroform-induced arrhythmia test; assay type: in vivo, mice of dd strain; settings: oral administration, effective if < 720 pulses/min, Probit method; for ED50: Mus musculus, po, read-out: Antiarrhythmic Activity A: chloroform induced arrhythmia in mice (ED50)
Method: The antiarrhythmic activity was examined by arrhythmia test induced with chloroform in mice and by arrhythmia test induced by ligation of dog coronary artery. (A) Mice chloroform-induced arrhythmia test: Using mice of dd strain, weighing 18 to 22 g and fasting and abstaining from water for 4 to 5 hours, an antiarrhythmic effect was evaluated in accordance with the method of Block [Life Science, 28, 2623 (1981)]. That is, after orally administrating each compound, the mice were put in a chloroform atmosphere and taken out after respiratory standstill. Electrocardiogram was measured by the standard limb induction method; in the case when frequent pulse exceeding 720 pulses/min. is continued for 30 seconds or longer, it was judged ineffective and in the case of a heart beat number being less than 720 pulses/min., it was judged effective. ED50 was determined by the Probit method.

dd, male mice [2] = test: Acute toxicity test (mortality 7 days after administration); assay type: in vivo; settings: mortality at 7 days, minimum lethal dosage
Method: Groups each consisting of three dd, male mice having body weights of 20±1 g were used, and the compound of the present invention was intraperitoneally administered. Mortality 7 days after the administration was observed and the minimum lethal dosage (MLD) was determined.

[3] = test system: coronary artery ligation-induced arrhythmia in dog; test: Dog coronary artery ligation-induced arrhythmia test; assay type: in vivo, dogs; settings: Canis lupus familiaris, intravenous, 16 h after ligation, effective if 50% or more of total pulses restored to sinus rhythm, dose effective in 50% or more cases, read-out: Antiarrhythmic Activity B: coronary artery ligation induced arrhythmia in dog (MED)
Description: The antiarrhythmic activity was examined by arrhythmia test induced with chloroform in mice and by arrhythmia test induced by ligation of dog coronary artery.
(B) Dog coronary artery ligation-induced arrhythmia test:
Using dogs weighing 7 to 12 kg, coronary artery ligation-induced arryhthmia occurred in accordance with the Harris method [Circulation, 1, 1318 (1950)]. Namely, the left fifth costa was subjected to thoraco-laparotomy.After the pericardium was incised, the left fore descending branch of the coronary artery was exfoliated around the first side branch and ligated. Sixteen hours after, a test compound was intravenously administered to dogs with multiple ventricular arrhythmic pulses being 90% or more than the total pulses. Then, electrocardiogram was recorded without anesthesia under free movement, and a case where 50% or more of the total pulses was restored to sinus rhythm was judged effective.

dd, male mice [4] = test: Acute toxicity test (mortality 7 days after administration); assay type: in vivo; settings: mortality at 7 days, minimum lethal dosage; remark: listed apart in the source

Compound | ED50 [1] [mg/kg] | Acute Toxicity (MLD) i.p. (dd, male mice [2]) [mg/kg] | minimal effective dose [3] [mg/kg] | Acute Toxicity (MLD) p.o. (dd, male mice [4]) [mg/kg] | Antiarrhythmic Activity A: chloroform induced arrhythmia in mice (ED50) [1] [mg/kg]
CCN(CC)CCN1C(=O)c2ccccc2C1c1ccccc1NC (stereo not drawn) [Compound 7, 2-(2-Diethylaminoethyl)-3-(2-methylaminophenyl)isoindolin-1-one] | 14 | 50 | > 2.5 | 50 | 
CCN(CC)CCN1C(=O)c2ccccc2C1c1ccccc1N (stereo not drawn) [Compound 1, 3-(2-Aminophenyl)-2-(2-diethylaminoethyl)isoindolin-1-one] | 33 | > 100 | 1.25 | > 300 | 
CCN(CC)CCN1C(=O)c2ccccc2C1c1cc(F)ccc1N (stereo not drawn) [Compound 32, 3-(2-Amino-5-fluorophenyl)-2-(2-diethylaminoethyl)-isoindolin-1-one] | 25 to 50 | > 100 |  | 300 | 
CC(C)NCCN1C(=O)c2ccccc2C1c1cc(C#N)ccc1N (stereo not drawn) [Compound 36, 3-(2-Amino-5-cyanophenyl)-2-(2-isopropylaminoethyl)-isoindolin-1-one] | 50 to 100 | > 100 |  | > 300 | 
CCCCN(CCCC)CCCN1C(=O)c2ccccc2C1c1ccccc1N (stereo not drawn) [Compound 5, 2-(3-dibutylaminopropyl)-3-(2-aminophenyl)isoindolin-1-one] | 35 | 25 | 1.25 | 100 | 
CCN(CC)CCN1C(=O)c2ccccc2C1c1ccc(N(C)C)cc1 (stereo not drawn) [Compound 18, 2-(2-Diethylaminoethyl)-3-(4-dimethylaminophenyl)-isoindolin-1-one] | 23 | 50 | 2.5 | 100 | 
CN(C)CCCN1C(=O)c2ccccc2C1c1ccccc1N (stereo not drawn) [Compound 2] | > 100 | > 100 | 5 | > 300 | 
CCN(CC)CCN1C(=O)c2ccccc2C1c1cc(Cl)ccc1N (stereo not drawn) [Compound 11, 3-(2-Amino-5-chlorophenyl)-2-(2-diethylaminoethyl)-isoindolin-1-one] | > 100 | > 100 | 5 | > 300 | 
CCN(CC)CCN1C(=O)c2ccccc2C1c1cccc(C(C)C)c1N (stereo not drawn) [Compound 33, 3-(2-Amino-3-isopropylphenyl)-2-(2-diethylaminoethyl)-isoindolin-1-one] | 14 | 50 |  | 100 | 
CCN(CC)CCN1C(=O)c2ccccc2C1c1cc(C)cc(C)c1N (stereo not drawn) [Compound 26, 3-(2-Amino-3,5-dimethylphenyl)-2-(2-diethylaminoethyl)-isoindolin-1-one] | < 25 | 100 |  | 200 | 
CCN(CC)CCN1C(=O)c2ccccc2C1c1cc(C#N)ccc1N (stereo not drawn) [Compound 31, 3-(2-Amino-5-cyanophenyl)-2-(2-diethylaminoethyl)-isoindolin-1-one] | 30 |  | 2.5 |  | 19
CCN(CC)CCN1C(=O)c2ccccc2C1c1c(C)ccc(C)c1N (stereo not drawn) [Compound 17, 3-(2-Amino-3,6-dimethylphenyl)-2-(2-diethylaminoethyl)-isoindolin-1-one] | < 25 | > 100 |  | 300 | 
CCN1CCCC1CN1C(=O)c2ccccc2C1c1cc(C#N)ccc1N (stereo not drawn) [Compound 35] | 50 to 100 | > 100 |  | > 300 | 
CCNCCN1C(=O)c2ccccc2C1c1cc(C#N)ccc1N (stereo not drawn) [Compound 38, 3-(2-Amino-5-cyanophenyl)-2-(2-ethylaminoethyl)-isoindolin-1-one] | 50 | > 100 | 5 | > 300 | 
CCN(CC)CCN1C(=O)c2ccccc2C1c1ccccc1N(C)C (stereo not drawn) [Compound 8, 2-(2-Diethylaminoethyl)-3-(2-dimethylaminophenyl)isoindolin-1-one] | 36 | 50 | 2.5 | 100 | 
CC(C)NCCN1C(=O)c2ccccc2C1c1ccccc1N (stereo not drawn) [Compound 6, 3-(2-Aminophenyl)-2-(2-isopropylaminoethyl)isoindolin-1-one] | 36 | > 100 | 2.5 | 300 | 
CCNc1ccccc1C1c2ccccc2C(=O)N1CCN(CC)CC (stereo not drawn) [Compound 9, 2-(2-Diethylaminoethyl)-3-(2-ethylaminophenyl)isoindolin-1-one] | 63 | > 100 | > 5 | 200 | 
CCN(CC)CCCCN1C(=O)c2ccccc2C1c1ccccc1N (stereo not drawn) [Compound 4, 3-(2-Aminophenyl)-2-(4-diethylaminobutyl)isoindolin-1-one] | 47 | > 100 | 1.25 | 200 | 
CCN(CC)CCCN1C(=O)c2ccccc2C1c1ccccc1N (stereo not drawn) [Compound 3, 3-(2-Aminophenyl)-2-(3-diethylaminopropyl)isoindolin-1-one] | < 100 | > 100 | 2.5 | 100 | 
